According to patent publication US20250179028A1, “ACRYLAMIDE COMPOUNDS” (NRG THERAPEUTICS LTD, priority 2022, published 2025):

Columns and labels:
[1] = system: mPTP; assay: mPTP activity (Ca2+ retention) assay in isolated rat liver mitochondria; type: biochemical; settings: isolated rat liver mitochondria; average value from multiple experiments (n ≥ 2)
Source text: Pharmacological inhibition or modulation of the mPTP can be measured in well characterised ‘Ca^2+ retention’ assays performed in isolated mitochondria. In vitro isolated mitochondria rapidly sequester exogenous Ca^2+ until the intramitochondrial Ca^2+ concentration reaches the threshold for mPTP activation. Once the pore is activated, mitochondrial integrity is compromised and the stored Ca^2+ is released. The distribution of Ca^2+ between extra- and intra-mitochondrial compartments can be measured in real time with the use of membrane-impermeant Ca^2+ sensitive fluorescent dyes. Depending on the configuration of the assay, inhibition or modulation of the mPTP either delays the opening of the pore or increases the concentration of Ca^2+ required to induce mPTP opening.
MPTP activity was measured in mitochondria freshly isolated from female Sprague Dawley (250 to 300 gram) rat livers using the following method. Cervical dislocation was performed on the rat. The liver was then perfused in-situ with ˜40 ml cold Dulbecco's Phosphate Buffered Saline (DPBS) prior to dissection and transferred into 30 ml Isolation Buffer (250 mM Sucrose, 10 mM KCl, 1 mM EGTA, 1 mM EDTA, 25 mM HEPES, adjusted to pH 7.5 with 1 M NaOH). Each lobe of the liver was then removed from the buffer, minced using tweezers and a scalpel into ˜5 mm pieces then transferred into a 50 ml Potterton dounce homogenization tube on ice containing 30 ml ice-cold centrifugation buffer (300 mM Trehalose, 25 mM HEPES, 1 mM EGTA, 1 mM EDTA, 10 mM KCl, adjusted to pH 7.5 with 1 M NaOH and supplemented with 0.1% bovine serum albumin (BSA) and complete protease inhibitor cocktail (one tablet of inhibitor per 50 mls of buffer). Homogenisation was carried out using a teflon pestle at 1800 rpm. The slurry was centrifuged at 800 g for 10 min at 4° C., then the supernatant centrifuged at 10,000 g for 10 min. The pellet was washed once with FLIPR assay buffer (75 mM Mannitol, 25 mM Sucrose, 5 mM Potassium Phosphate Monobasic, 20 mM Tris base, 100 mM KCl, 0.1% BSA adjusted to pH 7.4 with 5M HCl) centrifuged again, then resuspended in FLIPR assay buffer to a concentration of 8.8 mg/ml protein.
Tested compounds (10 mM stock in DMSO) were serially diluted in DMSO in half log steps to generate 10 test concentrations (final concentrations in assay 30 μM to 1 nM). An intermediate dilution of 5 μl DMSO samples into 247 μl FLIPR assay buffer was carried out prior to transfer of 5 μl into duplicate wells of a 384 well polypropylene assay plate. Control wells were 0.5% (v/v) DMSO and 5 μM cyclosporin A.
A stock mitochondria/Fluo5N assay solution was prepared in 5.6 ml FLIPR assay buffer (at RT) supplemented with succinate disodium salt (10 mM), rotenone (1 μM), Fluo5N pentapotassium salt (2 μM) and 1 ml mitochondria suspension, then transferred (15 μl) into the assay plate containing test compounds and incubated for 10 min at RT. Assay plates were then transferred to a FLIPR Tetra plate reader (Molecular Devices). Dye fluorescence was then measured every 3 sec for a total of 10 min. After 12 sec, a 2.5 μl bolus of CaCl2 (75 μM) was added from a source plate containing 675 μM CaCl2 in FLIPR assay buffer. IC50 values for tested compounds were calculated using the fluorescence value collected at the 10 min timepoint with % inhibition calculated using the DMSO control and cyclosporin A values as […] respectively.

[2] = molecular target: CYP2D6 (Homo sapiens (Human), UniProt P10635); assay: Cytochrome P450 CYP2D6 inhibition in human liver microsomes; type: in vitro ADME; settings: probe dextromethorphan 2 µM (dextrorphan formation); 1 uM test compound, human liver microsomes; average value from two experiments; negative values = no effective inhibition
Sequence of CYP2D6 (P10635 whole entry, canonical isoform): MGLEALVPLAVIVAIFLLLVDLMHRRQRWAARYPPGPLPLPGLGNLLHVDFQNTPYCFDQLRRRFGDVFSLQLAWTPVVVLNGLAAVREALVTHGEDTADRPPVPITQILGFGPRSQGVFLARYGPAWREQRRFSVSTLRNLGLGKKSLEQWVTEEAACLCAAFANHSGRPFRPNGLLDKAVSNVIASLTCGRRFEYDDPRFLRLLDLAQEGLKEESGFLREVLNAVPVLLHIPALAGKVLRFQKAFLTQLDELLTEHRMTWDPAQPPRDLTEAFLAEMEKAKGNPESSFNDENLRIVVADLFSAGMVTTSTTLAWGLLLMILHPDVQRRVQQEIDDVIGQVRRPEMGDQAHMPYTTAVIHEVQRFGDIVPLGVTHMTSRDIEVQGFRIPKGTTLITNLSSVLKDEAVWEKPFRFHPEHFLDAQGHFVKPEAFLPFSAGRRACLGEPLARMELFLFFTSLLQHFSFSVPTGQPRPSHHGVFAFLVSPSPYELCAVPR
Protocol: Studies to assess tested compound mediated inhibition of cytochrome P450 enzyme isoform CYP2D6 were performed using human liver microsomes (BD Gentest) using either a single concentration (1 μM) of test compound or concentration response (0.1, 0.3, 1, 3, 10 and 30 μM) to derive an IC50. Tested compound solutions were prepared from 10 mM stocks in DMSO and diluted to 200 μM in DMSO. Reactions were prepared in a 96 deep well plate by combining 1 μl test compound with 179 μl reaction mixture (100 mM phosphate buffered saline (PBS), 0.2 mg/mL microsomes and 2 μM Dextromethorphan prepared from stocks as detailed below).
The positive control inhibitor, quinidine, was used at a final concentration of 0.5 μM when used at a single concentration. The final concentrations of quinidine used to derive an IC50 were 0, 0.1, 0.3, 1, 3, 10 and 30 μM. Plates were warmed at 37° C. for 15 min before starting reactions with 20 μl 10 mM NADPH solution in PBS and incubated for 20 min at 37° C. The assay is performed in duplicate. Reactions were quenched with 200 μl cold acetonitrile containing internal standards (200 nM labetalol, 200 nM alprazolam and 100 nM tolbutamide). The plate was centrifuged at 4000 rpm for 30 minutes, placed on ice for 20 minutes and then centrifuged at 4000 rpm for 30 minutes again to precipitate protein. 100 μL of the supernatant was transferred to a new plate and diluted with 100 μL pure water before being analysed using UPLC/MS/MS. The products of the transformation for dextromethorphan to dextrorphan was monitored by UPLC-MS/MS. The inhibition of CYP2D6 in human liver microsomes was measured as the percentage decrease in the activity of dextrorphan formation compared to non-inhibited controls (=100% activity). The IC50 value was calculated (test compound concentration which produces 50% inhibition) by using Excel Xlfit.

Row | mPTP Rat liver pIC50 [1] | inhibition at 20 min, 1 µM [2] | SMILES
1 | 6.7 |  | Cc1n[nH]c2cc(/C=C/C(=O)NC3c4ccccc4CCC3C)ccc12 (stereo not drawn) [Example 53, (E)-N-(2-methyl-1,2,3,4-tetrahydronaphthalen-1-yl)-3-(3-methyl-1H-indazol-6-yl)acrylamide]
2 | 6.9 |  | Cc1n[nH]c2cc(/C=C/C(=O)NC3c4ccccc4OCC3C)ccc12 (stereo not drawn) [Example 52, (E)-3-(3-methyl-1H-indazol-6-yl)-N-(3-methylchroman-4-yl)acrylamide]
3 | 5.8 |  | O=C(/C=C/c1ccc2oc(=O)[nH]c2c1)NC1CCOc2ccccc21 (stereo not drawn) [Example 56, (E)-N-(chroman-4-yl)-3-(2-oxo-2,3-dihydrobenzo[d]oxazol-5-yl)acrylamide]
4 | 5.5 |  | O=C(/C=C/c1ccc2c(c1)NC(=O)C2)NC1CCc2ccccc21 (stereo not drawn) [Example 59, (E)-N-(2,3-dihydro-1H-inden-1-yl)-3-(2-oxoindolin-6-yl)acrylamide]
5 | 4.9 |  | Cc1ccc(Cl)cc1NC(=O)/C=C/c1ccc2oc(=O)[nH]c2c1 [Example 63, (E)-N-(5-chloro-2-methylphenyl)-3-(2-oxo-2,3-dihydrobenzo[d]oxazol-5-yl)acrylamide]
6 | 5.8 |  | O=C(/C=C/c1ccc2oc(=O)[nH]c2c1)NC1CCCc2ccccc21 (stereo not drawn) [Example 57, (E)-3-(2-oxo-2,3-dihydrobenzo[d]oxazol-5-yl)-N-(1,2,3,4-tetrahydronaphthalen-1-yl)acrylamide]
7 | 7.1 |  | Cc1n[nH]c2cc(/C=C/C(=O)N[C@@H]3CCc4ccccc43)ccc12 [Example 55, (E)-N-(2,3-dihydro-1H-inden-1-yl)-3-(3-methyl-1H-indazol-6-yl)acrylamide]
8 | 5.7 |  | Cc1c(F)cc(F)cc1NC(=O)/C=C/c1ccc2c(c1)NC(=O)C2 [Example 60, (E)-N-(3,5-difluoro-2-methylphenyl)-3-(2-oxoindolin-6-yl)acrylamide]
9 | 5.6 |  | O=C(/C=C/c1cc(F)c2nn[nH]c2c1)NC1CCc2ccccc21 (stereo not drawn) [Example 62, (E)-N-(2,3-dihydro-1H-inden-1-yl)-3-(4-fluoro-1H-benzo[d][1,2,3]triazol-6-yl)acrylamide]
10 | 5.6 |  | O=C(/C=C/c1ccc2nn[nH]c2c1F)NC1CCc2ccccc21 (stereo not drawn) [Example 61, (E)-N-(2,3-dihydro-1H-inden-1-yl)-3-(7-fluoro-1H-benzo[d][1,2,3]triazol-6-yl)acrylamide]
11 | 4.9 |  | CC1CCCCC1NC(=O)/C=C/c1ccc2c(c1)NC(=O)C2 (stereo not drawn) [Example 64, (E)-N-(2-methylcyclohexyl)-3-(2-oxoindolin-6-yl)acrylamide]

The remaining lines, values behind:

Row | SMILES | mPTP Rat liver pIC50 [1] | inhibition at 20 min, 1 µM [2]
12 | Cc1n[nH]c2cc(/C=C/C(=O)N[C@@H]3CCCC[C@H]3C)ccc12 [Example 43, (E)-3-(3-methyl-1H-indazol-6-yl)-N-((1R,2R)-2-methylcyclohexyl)acrylamide] | 6.3 | 
13 | CC1CCCC1NC(=O)/C=C/c1ccc2oc(=O)[nH]c2c1 (stereo not drawn) [Example 49, (E)-N-(2-methylcyclopentyl)-3-(2-oxo-2,3-dihydrobenzo[d]oxazol-5-yl)acrylamide] | 5.8 | 4.52%
14 | Cc1n[nH]c2cc(/C=C/C(=O)NC3CCc4cc(F)ccc43)ccc12 (stereo not drawn) [Example 40, (E)-N-(5-fluoro-2,3-dihydro-1H-inden-1-yl)-3-(3-methyl-1H-indazol-6-yl)acrylamide] | 6.6 | 6.65%
15 | Cc1n[nH]c2cc(/C=C/C(=O)Nc3cccc4cnn(C)c34)ccc12 [Example 39, (E)-3-(3-methyl-1H-indazol-6-yl)-N-(1-methyl-1H-indazol-7-yl)acrylamide] | 7.5 | 3.83%
16 | O=C(/C=C/c1ccc2oc(=O)[nH]c2c1)NC1CCc2ccccc21 (stereo not drawn) [Example 11, (E)-N-(2,3-dihydro-1H-inden-1-yl)-3-(2-oxo-2,3-dihydrobenzo[d]oxazol-5-yl)acrylamide] | 6.1 | -0.63%
17 | CC1CCc2ccccc2C1NC(=O)/C=C/c1ccc2c(c1)NC(=O)C2 (stereo not drawn) [Example 58] | 5.5 | 
18 | Cc1c(Cl)cccc1N(C)C(=O)/C=C/c1ccc2oc(=O)[nH]c2c1 [Example 48, (E)-N-(3-chloro-2-methylphenyl)-N-methyl-3-(2-oxo-2,3-dihydrobenzo[d]oxazol-5-yl)acrylamide] | 5.9 | 6.34%
19 | Cc1ccc(NC(=O)/C=C/c2ccc3c(C)n[nH]c3c2)cc1F [Example 42, (E)-N-(3-fluoro-4-methylphenyl)-3-(3-methyl-1H-indazol-6-yl)acrylamide] | 6.1 | -1.97%
20 | Cn1c(=O)[nH]c2cc(/C=C/C(=O)NC3CCc4ccccc43)ccc21 (stereo not drawn) [Example 24, (E)-N-(2,3-dihydro-1H-inden-1-yl)-3-(1-methyl-2-oxo-2,3-dihydro-1H-benzo[d]imidazol-5-yl)acrylamide] | 6.1 | 0.77%
21 | CC1Cc2ccccc2C1NC(=O)/C=C/c1ccc2c(c1)[nH]c(=O)n2C (stereo not drawn) [Example 45, (E)-N-(2-methyl-2,3-dihydro-1H-inden-1-yl)-3-(1-methyl-2-oxo-2,3-dihydro-1H-benzo[d]imidazol-5-yl)acrylamide] | 6.3 | 
22 | Cc1cc(NC(=O)/C=C/c2ccc3c(C)n[nH]c3c2)ccc1F [Example 41, (E)-N-(4-fluoro-3-methylphenyl)-3-(3-methyl-1H-indazol-6-yl)acrylamide] | 7.1 | 1.2%
23 | Cc1cccc(C)c1NC(=O)/C=C/c1ccc2c(C)n[nH]c2c1 [Example 31, (E)-N-(2,6-dimethylphenyl)-3-(3-methyl-1H-indazol-6-yl)acrylamide] | 7.7 | 19.9%
24 | Cc1n[nH]c2cc(/C=C/C(=O)NC3CCc4ccccc43)cc(F)c12 (stereo not drawn) [Example 34, (E)-N-(2,3-dihydro-1H-inden-1-yl)-3-(4-fluoro-3-methyl-1H-indazol-6-yl)acrylamide] | 6.7 | 4.37%
25 | CC1Cc2ccccc2C1NC(=O)/C=C/c1ccc2oc(=O)[nH]c2c1 (stereo not drawn) [Example 46, (E)-N-(2-methyl-2,3-dihydro-1H-inden-1-yl)-3-(2-oxo-2,3-dihydrobenzo[d]oxazol-5-yl)acrylamide] | 6.3 | 
26 | Cc1c(F)cccc1NC(=O)/C=C/c1ccc2sc(=O)[nH]c2c1 [Example 2, (E)-N-(3-fluoro-2-methylphenyl)-3-(2-oxo-2,3-dihydrobenzo[d]thiazol-5-yl)acrylamide] | 6.0 | 
